{
  "source": "patent US20070066616A1",
  "about": "“Inhibitors for extracellular signal-regulated kinase docking domains and uses therefor” (priority 2005, published 2007)",
  "key": {"[1]": {"tested_on": "ERK1/2 phosphorylation by MEK1/2", "assay": "ERK1/2 phosphorylation on activating sites (upstream MEK1/2), immunoblot", "assay_type": "cell-based, human", "details": "HeLa cells, EGF stimulated", "protocol": "HeLa cells were pretreated with or without 100 μM of test compounds for 5 min (FIGS. 5A-5B) or 15 min (FIGS. 5C-5E) prior to the addition of epidermal growth factor (EGF or E) to stimulate the ERK pathway or anisomycin (A) to stimulate p38 MAP kinase. In FIGS. 5A-5B HeLa cells were treated with EGF for 5 minutes. […] The far left lane is the control (−) with no EGF. […] The control (C) is EGF only treatment. In FIG. 5B cells pretreated with increasing concentrations of compound 76 were stimulated with EGF. ELK-1 phosphorylation on Ser383 (pELK-1) was measured by immunoblotting. The expression of dually phosphorylated ERK1/2 (ppERK1/2) and a-tubulin as a loading control are also shown. […] The pElk-1 phosphorylation in the presence of the test compounds was compared to the EGF only treatment, which was set at 100%. […] The pRsk-1 phosphorylation in the presence of the test compounds was compared to the EGF only treatment, which was set at 100%. […] The pATF2 phosphorylation in the presence of the test compounds was compared to the anisomycin (A) only treatment, which was set at 100%. The data were reproduced in at least 3 independent experiments.\nPrior to harvesting, cells were pre-incubated with the test compounds for 15-20 minutes and then stimulated with EGF or anisomycin to activate the ERK or p38 MAP kinase pathways, respectively. […]"}, "[2]": {"molecular_target": "T1, ERK2 (Mus musculus, UniProt P63085)", "T1 construct": "(His)x6; made in house; host or cells: bacteria", "assay": "Fluorescence titration (quenching of intrinsic ERK2 fluorescence)", "assay_type": "binding", "protocol": "(§1) Experiments measure the changes in the intrinsic ERK2 fluorescence due to the presence of aromatic amino acids, with the indole group of tryptophan being the major fluorophore with absorption and emission maxima around 280 and 340 nanometers (nm), respectively. Fluorescence spectra were recorded with a Luminescence Spectrometer LS50 (Perkin Elmer, Boston, Mass.). For all experiments, ERK2 protein was diluted into 20 mM Tris-HCl, pH 7.5. Titrations were performed by increasing the test compound concentration while maintaining the ERK2 protein concentration at 3 μM.\nThe excitation wavelength was 295 nm and fluorescence was monitored from 300 to 500 nm. All reported fluorescence intensities are relative values and are not corrected for wavelength variations in detector response. Dissociation constants, KD, were determined using reciprocal plots, 1/ν vs 1/[I], where ν represents the percent occupied sites calculated assuming fluorescence quenching to be directly proportion to the percentage of occupied binding sites, [I] represents the concentration of the inhibitor compound and the slope of the curve equals the KD (48-49).\nERK2 contains three tryptophans, which have intrinsic fluorescence. Fluorescence quenching of ERK2 by the test compounds is indicative of binding interactions and potential protein conformational changes."}, "[3]": {"molecular_target": "T2, ERK2 T157A (Mus musculus, UniProt P63085, T157A)", "T2 construct": "(His)x6; made in house; host or cells: bacteria (as described for ERK2 in general; not repeated for the mutant)", "T2 sequence (P63085 whole entry T157A, the tested form may be a part)": "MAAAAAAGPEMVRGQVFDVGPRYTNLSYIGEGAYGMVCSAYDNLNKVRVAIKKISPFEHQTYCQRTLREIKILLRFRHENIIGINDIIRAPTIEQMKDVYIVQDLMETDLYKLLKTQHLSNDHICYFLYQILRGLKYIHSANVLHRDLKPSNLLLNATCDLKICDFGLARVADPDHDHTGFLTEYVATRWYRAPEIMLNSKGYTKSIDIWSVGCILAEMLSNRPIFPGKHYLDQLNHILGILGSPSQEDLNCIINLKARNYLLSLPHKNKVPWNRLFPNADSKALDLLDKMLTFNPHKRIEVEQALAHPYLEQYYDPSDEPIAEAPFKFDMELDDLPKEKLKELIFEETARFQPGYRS", "assay": "Fluorescence titration with ERK2 point mutant T157A (ED domain)", "assay_type": "binding", "details": "fluorescence quenching", "protocol": "as §1, with “Direct binding interactions between ERK2 and the biologically active compounds is determined using fluorescence spectroscopy (47). Experiments” for “Experiments”\nUnphosphorylated and phosphorylated ERK2 typically are incubated with […] of the biologically active compounds and the fluorescence intensity is measured. If necessary, higher inhibitor concentrations are used to saturate fluorescence quenching. The excitation wavelength was 295 nm and fluorescence was monitored from 300 to 500 nm. All reported fluorescence intensities are relative values and are not corrected for wavelength variations in detector response. […] Because the test compounds contain aromatic structures, the emission spectra of the active compounds in the absence of ERK2 is be determined. […]"}, "[4]": {"tested_on": "ERK-mediated phosphorylation of Elk-1 on S383", "assay": "ERK-mediated Elk-1 phosphorylation (Ser383), immunoblot in EGF-stimulated HeLa cells", "assay_type": "cell-based, human", "protocol": "Prior to harvesting, cells were pre-incubated with the test compounds for 15-20 minutes and then stimulated with EGF or anisomycin to activate the ERK or p38 MAP kinase pathways, respectively. […] The lysates then were diluted with an equal volume of 2X SDS-sample buffer and the proteins were separated on SDS-PAGE for immunoblot analysis. Immunoblot analysis was done as previously described (41-43).\nCells were treated with EGF to activate the ERK pathway and phosphorylation of Elk-1 on the ERK site at S383 was detected by immunoblot analysis (FIG. 5C). […] The effects of the test compounds were also tested with Rsk-1, another ERK substrate involved in regulating cell proliferation."}},
  "note": "“Also recorded” adds a separate entry of the source.",
  "data": [
    {"molecule": "CCOc1ccc(C=C2SC(=O)N(CCN)C2=O)cc1", "note": "[Compound 76]", "values": [
      {"measurement": "effect on ERK1/2 phosphorylation on activating sites", "setting": "[1]", "result": "largely unaffected"},
      {"measurement": "y-intercept of reciprocal plot (indicating a single binding site)", "setting": "[2]; 1/ν vs 1/[I] plot", "result": 1.8},
      {"measurement": "ERK2 fluorescence quenching / binding (in words)", "setting": "[2]; fluorescence titration", "result": "strong quenching; also recorded: bind to directly ERK2"},
      {"measurement": "reduction in binding affinity compared to wild type ERK2", "setting": "[3]", "result": "approximately 5 fold"},
      {"measurement": "effect on ERK-mediated Elk-1 phosphorylation (in words)", "setting": "[4]", "result": "inhibited"}
    ]}
  ]
}
